Laboratory results reported in paper PMC10064984, “Anti-cyclooxygenase, anti-glycation, and anti-skin aging effect of Dendrobium officinale flowers’ aqueous extract and its phytochemical validation in aging” (Frontiers in Immunology, 2023).
Several values for one entry are separate records, joined by “and”; a condition that tells them apart may be missing. Equal values may be shown once. Read-outs that look alike come from different tables or passages of the source.

Tests used:
Type in all cases: biochemical
[1] = ABTS·+ decolourisation capacity; settings: for ABTS scavenging rate: 0.5mM series, replicate wells, listed as T19; for IC50: mean ± SD, n = 3
Method: Fast colourimetric methods were slightly modified for the in vitro assessment of DPPH· scavenging ([19]), ABTS·+ decolourisation capacity ([20]), and total antioxidant capacity of FRAP ([21]). The stock solutions of derivatisation reagents were diluted as follows before measurement: DPPH was diluted with absolute ethanol until the absorbance was 0.8 ± 0.05 at λ = 517 nm. ABTS working solution was prepared with phosphate buffer (0.2 M, pH 7.4) to display absorbance of 0.8 ± 0.05 at λ = 729 nm, based on a previous study ([22]). The FRAP solution was prepared according to the instructions of the FRAP kit. Absorbances were measured using an automatic microplate reader (Molecular Group Ltd., USA), and all analyses were performed using 96-well plates. All measurements were performed in triplicate, and Trolox was used as a positive control.
For ABTS·+ decolourisation capacity, 100 μl of ABTS working solution was mixed with 200 μl of sample solution, and the absorbance was recorded after 10 min at 729 nm. Phosphate buffer (0.2 M, pH 7.4) was used as a negative control.
DPPH· and ABTS·+ radical scavenging activities of the tested sample were both calculated using the following formula:
% inhibition = (A control − A sample)/A control × 100
Where A control and A sample represent the absorbance of the control and test samples, respectively. The IC50 was calculated graphically from the dose-inhibition curves.

COX-2 = target: T1, COX-2 (Homo sapiens, UniProt P35354); experiment: Anti-COX-2 assay (COX-2 Inhibitor Screening Kit)
T1 construct: purchased Beyotime S0168
T1 sequence (P35354 18-604): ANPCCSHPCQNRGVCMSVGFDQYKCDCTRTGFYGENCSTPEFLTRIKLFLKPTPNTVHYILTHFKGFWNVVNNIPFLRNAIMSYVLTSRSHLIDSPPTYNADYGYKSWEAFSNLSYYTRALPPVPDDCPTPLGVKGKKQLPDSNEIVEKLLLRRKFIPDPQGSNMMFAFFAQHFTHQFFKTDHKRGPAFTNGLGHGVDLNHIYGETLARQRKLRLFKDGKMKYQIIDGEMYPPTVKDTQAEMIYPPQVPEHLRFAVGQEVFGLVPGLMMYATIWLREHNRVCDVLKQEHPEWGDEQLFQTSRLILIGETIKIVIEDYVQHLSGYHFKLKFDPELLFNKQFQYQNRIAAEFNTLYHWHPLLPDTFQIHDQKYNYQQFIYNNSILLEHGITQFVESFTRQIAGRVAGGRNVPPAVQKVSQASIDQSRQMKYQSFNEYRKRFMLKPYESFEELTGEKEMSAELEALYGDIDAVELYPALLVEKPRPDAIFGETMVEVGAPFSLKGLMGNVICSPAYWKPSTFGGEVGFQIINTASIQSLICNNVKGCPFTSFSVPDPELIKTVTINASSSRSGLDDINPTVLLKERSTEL

DPPH· scavenging = settings: mean ± SD, n = 3
[2] = FRAP total antioxidant capacity; settings: lower part of sheet (compound series);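 further: colourimetric FRAP kit assay read as absorbance in 96-well plates, values as mM FeSO4 via standard curve, EC1 being sample concentration matching 1.0 mmol/L FeSO4, Trolox positive control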
[3] = Fluorescent AGEs formation in a BSA-fructose/glucose system; settings: mean ± SD, n = 3; read-out: BSA-glycation IC50
Method: Glycated protein was prepared in vitro by incubating BSA in the presence of D-glucose (GLC) and D-fructose (FRC). The DOF extract and specific standards were dissolved in DMSO:water (1:4). […] The assay was performed in triplicate, and AG was used as a positive control. The percentage inhibition of fluorescent AGE formation was calculated using the following equation: […] Where IF sample is fluorescence intensity in the presence of samples and BSA, IF sample control is fluorescence intensity in the presence of samples without BSA, IF control is fluorescence intensity without samples, and IF blank control is fluorescence intensity without samples and BSA.

SMILES: O=c1cc(-c2ccc(O)c(O)c2)oc2c(C3OCC(O)C(O)C3O)c(O)c(C3OC(CO)C(O)C(O)C3O)c(O)c12 [compound 15, Luteolin-6-C-β-D-glucoside-8-C-β-D-xyloside]
- ABTS scavenging rate ([1]; concentration 7.8125 (unit not given)): 33.84% and 32.82% and 31.57%
- ABTS scavenging rate ([1]; concentration 15.625 (unit not given)): 51.02% and 51.43% and 45.77%
- ABTS scavenging rate ([1]; concentration 31.25 (unit not given)): 80.79% and 81.13% and 77.35%
- ABTS scavenging rate ([1]; concentration 62.5 (unit not given)): 99.45% and 99.39% and 98.61%
- ABTS scavenging rate ([1]; concentration 125 (unit not given)): 99.58% and 99.48% and 99.50%
- ABTS scavenging rate ([1]; concentration 250 (unit not given)): 99.61% and 99.60% and 99.48%
- ABTS scavenging rate ([1]; concentration 500 (unit not given)): 99.69% (2×) and 99.56%
- IC50 [1]: 13.8 ± 0.82 µM
- COX-2 inhibition (in words) (COX-2): great COX-2 inhibition
- inhibition at 3.125 µM (COX-2; 3.125 μM, single replicates): 14.6%
- COX-2 inhibition (COX-2; 3.125 μM, single replicates, listed as T19, 3.125 µM): 14.16% and 11.51%
- inhibition at 6.25 µM (COX-2; 6.25 μM, single replicates): 39.3%
- COX-2 inhibition (COX-2; 6.25 μM, single replicates, listed as T19, 6.25 µM): 23.77% and 25.81%
- inhibition at 12.5 µM (COX-2; 12.5 μM, single replicates): 60.5%
- COX-2 inhibition (COX-2; 12.5 μM, single replicates, listed as T19, 12.5 µM): 53.05% and 54.30%
- inhibition at 25 µM (COX-2; 25 μM, single replicates): 71.9%
- COX-2 inhibition (COX-2; 25 μM, single replicates, listed as T19, 25 µM): 68.96% and 71.63%
- inhibition at 50 µM (COX-2; 50 μM, single replicates): 75.8%
- COX-2 inhibition (COX-2; 50 μM, single replicates, listed as T19, 50 µM): 74.58% and 74.45%
- inhibition at 100 µM (COX-2; 100 μM, single replicates): 83.1%
- COX-2 inhibition (COX-2; 100 μM, single replicates, listed as T19, 100 µM): 75.76% and 77.02%
- inhibition at 200 µM (COX-2; 200 μM, single replicates): 80.8%
- COX-2 inhibition (COX-2; 200 μM, single replicates, listed as T19, 200 µM): 78.95% and 81.08%
- IC50 (COX-2; mean ± SD, n = 3, nd, not detected, read-out: COX-2 IC50): 13.9 ± 2.4 µM
- IC50 (COX-2; supplement sheet COX, read-out: COX-2 IC50, single replicate): 11.2 µM and 15.8 µM and 14.8 µM
- IC50 (DPPH· scavenging): 145 ± 51.4 µM
- FRAP EC1 [2]: 1100.3 ± 138.4 µM
- IC50 [3]: 294 ± 13.3 µM

SMILES: O=c1cc(-c2ccc(O)cc2)oc2c(C3OCC(O)C(O)C3O)c(O)c(C3OC(CO)C(O)C(O)C3O)c(O)c12 (stereo not shown) [compound 17, Schaftoside]
- IC50 [1]: 75.6 ± 12.1 µM
- COX-2 inhibition (in words) (COX-2): no inhibitory effects
- COX-2 inhibition (COX-2; 31.25 μM, single replicates, listed as T4, 31.25 µM): -26.58% and -23.72% and 26.46%
- COX-2 inhibition (COX-2; 62.5 μM, single replicates, listed as T4, 62.5 µM): -5.78% and -8.50% and -9.30%
- COX-2 inhibition (COX-2; 125 μM, single replicates, listed as T4, 125 µM): -21.60% and 2.72%
- COX-2 inhibition (COX-2; 250 μM, single replicates, listed as T4, 250 µM): -34.33% and -33.14% and 20.94%
- COX-2 inhibition (COX-2; 500 μM, single replicates, listed as T4, 500 µM): -36.70% and -25.03% and -14.74%
- COX-2 inhibition (COX-2; 1000 μM, single replicates, listed as T4, 1000 µM): -40.79% and -25.81% and -34.65%
- COX-2 inhibition (COX-2; 2000 μM (2mM), single replicates, listed as T4): -30.80% and -21.24% and -15.63%
- IC50 (DPPH· scavenging): > 5000 µM
- FRAP EC1 [2]: >5000 µM
- IC50 [3]: 250 ± 4.16 µM
